EP2949653A1, “ISOXAZOLE DERIVATIVES AS LEUKOTRIENE BIOSYNTHESIS INHIBITORS” (Banoglu, Erden, priority 2014, dated 2015)

Legend:
[1] = test system: 5-LO mediated product formation; experiment: 5-LO mediated product formation in intact neutrophils stimulated with A23187 (cell-based); set-up: species or system human; conditions: for IC50: Neutrophil
Experimental: (§1) Cell based and cell-free assays carried out in biological studies, immunofluorescence microscopy analysis and zymosan-induced peritonitis in mice are performed as described hereinabove (Pegola, C. and et al., British J. Pharmacology, 2014, D01:10.1111/bph.12625). In the cell based assays (intact neutrophils or monocytes), 5-LO mediated product formation is started, after pre-incubation with test compounds (or control DMSO) for 15 min. at 37 °C, with addition of Ca-ionophore A23187 (2.5 µM) to the fresh 5 x 10^6 neutrophils or monocytes suspended in 1 ml of PGC buffer (phosphate buffered saline (PBS) solution containing 1 mg ml^-1 glucose and 1mM CaCl2, pH 7.4). After the incubation for 10 min. at 37 °C, the reaction is ended with addition of 1 ml of methanol, and 30 µL 1 N HCl, 200 ng prostaglandin B1 and 500 µL PBS are added to the mixture. In cell-free assays (isolated 5-LO and cell homogenates), human recombinant 5-LO protein or 40,000g supernatant is added to 1 ml of 5-LO reaction mixture (PBS, pH 7.4, 1 mM EDTA, 1 mM ATP), and then incubated with test compounds (or control DMSO) for 10 min. at 4°C, heated to 37 °C and 2 mM CaCl2 as well as AA at certain concentrations are added. The reaction is ended as described for the cell-based assays. Resulting 5-LO mediated products are extracted and analysed by the known method of high pressure liquid chromatography (HPLC) (Pergola, C. Proc Natl. Acad. Sci. U.S.A. 2008, 105, 19881). 5-LO mediated product formation (LTB4 and all trans isomers, and 5 (S)-hydro(pero)xy-6-trans-8, 11, 14-cis-eicosatetraenoic acid, 5-H(p)ETE) is expressed as ng per 10^6 cell. Cysteinyl-LTs have not been analyzed because that the amount of C4, D4 and E4 and LTB4 oxidation products are below the detection limit.
Compounds were tested in intact human neutrophils stimulated with 2.5 µM A23187 under cell based conditions and on purified 5-LO under cell free conditions. ^aData are given as remaining activity as a percentage of control (100%) at 10 µM or 1 µM inhibitor concentrations (means ± SE, n = 3-6).
Compound 9hj inhibited 5-LO mediated product formation with IC50 of 60 nM in human neutrophils. Neutrophils are stimulated with Ca-ionophore A23187 (2.5 µM), without the addition of exogenous arachidonic acid (AA), after pre-incubation with 9hj or vehicle (0.1 % DMSO). 100% controls correspond to 275.7 ng mL^-1 of 5-LO mediated products (Figure 1).
100% controls correspond to 328.97 ng mL^-1 of 5-LO mediated products.

[2] = test system: 5-LO mediated product formation; experiment: 5-LO mediated product formation in intact monocytes stimulated with A23187; format: cell-based; conditions: Homo sapiens, Monocyte; A23187 (2.5 µM), absence of exogenous AA (Figure 3)
Experimental: as §1, with “In cell-free assays (isolated 5-LO and cell homogenates), human recombinant 5-LO protein or 40,000g supernatant is added to 1 ml of 5-LO reaction mixture (PBS, pH 7.4, 1 mM EDTA, 1 mM ATP), and then incubated with test compounds (or control DMSO) for 10 min. at 4°C, heated to 37 °C and 2 mM CaCl2 as well as AA at certain concentrations are added. The reaction is ended as described for the cell-based assays.” left out, “limit. […]” for “limit.”

[3] = test system: 5-LO mediated product synthesis; experiment: 5-LO mediated product synthesis in neutrophils stimulated with LPS plus fMLP; format: cell-based; conditions: Homo sapiens, Neutrophil
[4] = test system: 5-LO mediated product synthesis; experiment: 5-LO mediated product synthesis in neutrophils under cell-stress (NaCl or diamide); format: cell-based; conditions: in the presence of cell-stress (0.3 M NaCl or 0.25 mM diamide), human neutrophils (Figure 4A-B)
Experimental: Inhibitory activity of compound 9hj on 5-LO mediated product synthesis in human neutrophils is shifted to the right by factor 10 in the presence of cell-stress (i.e., 0.3 M NaCl or 0.25 mM diamide), which is typical for non-redox type 5-LO inhibitors or FLAP inhibitors (Figure 4A-B). To intact neutrophils, 0.3 M sodium chloride (NaCl) or vehicle (DMSO) was added 3 min before addition of 9hj at 37°C. After addition of 9hj for another 10 min at 37°C, cells were stimulated with 20 µM AA for 10 min at 37°C. Data are expressed as percentage of vehicle control (0.1% DMSO). 100% controls correspond to 174.41 ng mL^-1 for 0.3 M NaCl and 50.73 ng mL^-1 for control (DMSO) (Figure 4A). To intact neutrophils, 0.25 mM diamide or vehicle (DMSO) was added 5 min before addition of 9hj at 37°C (Figure 4b). After addition of 9hj for another 15 min at 37°C, cells were stimulated with 2.5 µM A23187 plus 20 µM AA for 10 min at 37°C. Data are expressed as percentage of vehicle control (0.1% DMSO). 100% controls correspond to 1148.61 ng mL^-1 for 0.25 mM diamide and 802.06 ng mL^-1 for control (DMSO) (Figure 4B).

translocation of 5-LO = experiment: 5-LO subcellular localization by immunofluorescence microscopy; format: cell-based; conditions: 0.1 and 1 µM; Ca-ionophore A23187 (2.5 µM; 3 min) (Figure 8)
PMNL = experiment: Cytotoxicity to PMNL; format: cell-based; conditions: within 1 hour at 10 µM
[5] = biological target: T1, microsomal prostaglandin E synthase-1 (mPGES-1) (Homo sapiens, UniProt O14684); experiment: mPGES-1 inhibition; format: biochemical
T1 sequence (O14684 1-152): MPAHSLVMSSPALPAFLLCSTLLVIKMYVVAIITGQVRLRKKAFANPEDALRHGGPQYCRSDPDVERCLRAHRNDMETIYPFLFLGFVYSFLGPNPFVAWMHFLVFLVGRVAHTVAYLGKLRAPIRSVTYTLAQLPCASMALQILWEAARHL
Experimental: Compound 9hj inhibited microsomal prostaglandin E synthase-1 (mPGES-1) with IC50 of 5 µM.

[6] = test system: 5-LO mediated product formation; experiment: 5-LO mediated product formation in intact neutrophils stimulated with A23187 (cell-based); conditions: Homo sapiens, Neutrophil; A23187, in the presence of 20 µM to 80 µM exogenous arachidonic acid (Figure 2); read-out: IC50 5-LO mediated product formation in human neutrophils with exogenous AA

SMILES: O=C(O)c1noc(-c2ccc(OCc3ccc4ccccc4n3)cc2)c1-c1ccc(Cl)cc1 [Compound 9hj, 4-(4-Chlorophenyl)-5-(4-(quinolin-2-ylmethoxy)phenyl)isoxazole-3-carboxylic acid]
- IC50 ([1]; Homo sapiens, A23187 (2.5 µM), without exogenous AA, vehicle 0.1 % DMSO (Figure 1), read-out: IC50 5-LO mediated product formation in human neutrophils): 0.06 µM
- IC50 ([1]; intact human neutrophils stimulated with 2.5 µM A23187, mean ± SE, n = 3-4, read-out: Inhibition of purified 5-LO activity IC50 (µM) cell based): 0.24 µM
- activity at 1 µM ([1]; PMNL, remaining activity at 1 µM inhibitor, human neutrophils, 2.5 µM A23187, means ± SE, n = 3-6, read-out: 5-LO mediated product formation in intact neutrophils (PMNL) (% of control) at 1 µM): 12.1 ± 5.26%
- activity at 10 µM ([1]; PMNL, remaining activity at 10 µM inhibitor, human neutrophils, 2.5 µM A23187, means ± SE, n = 3-6, read-out: 5-LO mediated product formation in intact neutrophils (PMNL) (% of control) at 10 µM): 2.73 ± 1.41%
- IC50 [2]: 0.005 µM
- IC50 [3]: 0.01 µM
- Inhibitory activity shifted to the right by factor [4]: 10
- translocation of 5-LO from soluble subcellular compartment to nuclear membrane (translocation of 5-LO): inhibited translocation
- cytotoxicity to PMNL (PMNL): not cytotoxic
- IC50 [5]: 5 µM
- IC50 [6]: 0.17 to 0.35 µM
